Results reported in patent US20050282818A1, “Ubiquitin ligase inhibitors” (Rigel Pharmaceuticals, Inc., priority 2004, published 2005).
Where two headings read alike, the source gives them in different places.

How the values were obtained:
[1] = tested on: H1299 cells; assay: Cell proliferation PAD assay, H1299; format: cell-based; conditions: Homo sapiens, 48 hours
Experimental: (§1) Cell lines used are available from American Type Culture Collection (ATCC), for example, cell cultures containing A549 (ATCC# CCL-185), HeLa (ATCC# CCL-2), HCT116 ATTC# CCL-247), and H1299 (ATCC# CRL-5803) cells were maintained in T175 flasks following the ATCC recommended media and handling procedures. […] A 20,000 cells/ml solution was made for plating. Cells were plated in black Packard 96 well plates by placing 100 μl per well (2,000 cells per well). […] The definitions of the cell types used are as follows: A549 is lung carcinoma; HI 299 is non-small cell lung carcinoma; HI 155 is non-small cell lung carcinoma; AsPC-1 is pancreatic adenocarcinoma; Caov-3 is ovarian adenocarcinoma; COLO 205 is colorectal adenocarcinoma; DLD-1 colorectal adenocarcinoma; HCT116 is colorectal carcinoma; DU 145 is prostate carcinoma; ES-2 is ovarian clear cell carcinoma; H460 is large cell lung carcinoma; HELA is cervical adenocarcinoma; MIA PaCa-2 is pancreatice carcinoma; OVCAR-3 is ovarian adenocarcinoma; OVCAR8 is ovarian carcinoma; PC3 is prostate adenocarcinoma; SK-OV-3 is ovarian adenocarcinoma; SU86.86 is pancreatic carcinoma; TOV-21G is avarian clear cell carcinoma; U2OS is bone osteosarcoma; is ASPC-I is pancreatic adenocarcinoma; BXPC-3 is pabcreatic adenocarcinoma; HL60 is promyeloblast promyelocytic leukemia; K562 is bone marrow chronic myelogenous leukemia; L1210 is mouse lymphocytic leukemia; MOLT3 is T lymphoblast acute lymphoblastic leukemia; MOLT4 is T lymphoblast acute lymphoblastic leukemia; SW620 is colorectal adenocarcinoma; THP-1 is monocyte acute monocytic leukemia; U937 is histiocytic lymphoma; and UACC-257 is melanoma.
(§2) Compounds and additional media were added 24 hours after cell plating. […] All compound testing was done in duplicate using 6.3 fold dilutions starting with 10 mM. […] Taxol and at least one additional control were run on all plates. Three microliters of the compound master plate were added to deep well blocks containing 750 μl of RPMI media. One hundred microliters were transferred from the compound/media deep well blocks to the plated cells resulting in a 500 fold dilution of the compounds. Cells were grown at 37° C., 5% CO2 for 48 hours.
(§3) Cells to be analyzed by photography were fixed and stained. One hundred microliters of media were removed and 100 μl of 9.3% formamide was added to each well. Plates were left on the benchtop for 45 minutes. A staining solution containing 1.55 μl of 1 mg/ml DAPI added to 18.75 ml PBS was warmed for 15 minutes at 37° C. The cells were aspirated prior to washing with 100 μl of PBS. Seventy microliters of PBS were aspirated and 170 μl of the DAPI solution were added to each well of fixed cells. Plates were left at room temperature for one hour then aspirated and washed twice with 100 μl of PBS. The stained cells were left at 4° C. for a minimum of 16 hours before photographic analysis with Array Scan II (Cellomics). Analysis of the photographic images to determine numbers of live cells (proliferation), apoptotic cells and dead cells, were according to the methods described in U.S. Utility patent application Ser. No. 10/652,440, which incorporated herein in its entirety.

[2] = tested on: A549 cells; assay: Cell proliferation PAD assay, A549; format: cell-based; conditions: Homo sapiens, 48 hours
Experimental: as §1, §2, §3

[3] = NCI-H1299, 3pt, read-out: H1299 3pt

Compound | IC50 [1, 3] [µM] | IC50 ([2]; 3pt, read-out: A549 3pt) [µM] | IC50 ([1]; NCI-H1299, 6pt, read-out: H1299 6pt) [µM] | IC50 ([2]; 6pt, read-out: A549 6pt) [µM]
O=S(=O)(Nc1cccc2nsnc12)c1ccc(F)cc1Br [compound 77, N-2,1,3-benzothiadiazol-4-yl-2-bromo-4-fluorobenzenesulfonamide] | ≥ 20 | ≥ 20 |  | 
O=S(=O)(Nc1cccc2nsnc12)c1cc(Cl)c(O)c(Cl)c1 [compound 96, N-2,1,3-benzothiadiazol-4-yl-3,5-dichloro-4-hydroxybenzenesulfonamide] | ≥ 20 | ≥ 20 |  | 
O=S(=O)(Nc1cccc2nsnc12)c1cccc(Br)c1 [compound 97, N-2,1,3-benzothiadiazol-4-yl-3-bromoberizenesulfonamide] | ≥ 20 | ≥ 20 |  | 
O=S(=O)(Nc1cccc2nsnc12)c1ccc(CBr)cc1 [compound 98, N-2,1,3-benzothiadiazol-4-yl-4-(bromomethyl)benzenesulfonamide] | ≥ 20 | ≥ 20 |  | 
N#Cc1ccccc1S(=O)(=O)Nc1cccc2nsnc12 [compound 100, N-2,1,3-benzothiadiazol-4-yl-2-cyanobenzenesulfonamide] | ≥ 20 | ≥ 20 |  | 
N#Cc1cccnc1N1CCN(S(=O)(=O)c2cccc3nonc23)CC1 [compound 119, 2-[4-(2,1,3-benzoxadiazol-4-ylsulfonyl)piperazin-1-yl]nicotinonitrile] | ≥ 20 | ≥ 20 |  | 
N#Cc1ccc(N2CCN(S(=O)(=O)c3cccc4nonc34)CC2)nc1 [compound 120, 6-[4-(2,1,3-benzoxadiazol-4-ylsulfonyl)piperazin-1-yl]nicotinonitrile] | ≥ 20 | ≥ 20 |  | 
O=S(=O)(c1cccc2nonc12)N1CCN(c2ccccn2)CC1 [compound 123, 4-[(4-Pyridin-2-ylpiperazin-1-yl)-sulfonyl]-2,1,3-benzoxadiazole] | ≥ 20 | ≥ 20 |  | 
O=S(=O)(c1cccc2nonc12)N1CCN(c2cc(C(F)(F)F)ccn2)CC1 [compound 124, 4-({4-[4-(trifluoromethyl)pyridin-2-yl]piperazin-1-yl}sulfonyl)-2,1,3-benzoxadiazole] | ≥ 20 | ≥ 20 |  | 
O=S(=O)(c1cccc2nonc12)N1CCN(c2cccc(C(F)(F)F)c2)CC1 [compound 125, 4({4-[3-(trifluoromethyl)phenyl]piperazin-1-yl}sulfonyl)-2,1,3-benzoxadiazole] | ≥ 20 | ≥ 20 |  | 
O=S(=O)(c1cccc2nonc12)N1CCN(c2ccncc2)CC1 [compound 126, 4-[(4-pyridin-4-ylpiperazin-1-yl)sulfonyl]-2,1,3-benzoxadiazole] | ≥ 20 | ≥ 20 |  | 
O=S(=O)(c1cccc2nonc12)N1CCN(CCN2CCOCC2)CC1 [compound 127] | ≥ 20 | ≥ 20 |  | 
CC(=O)N1CCN(S(=O)(=O)c2cccc3nonc23)CC1 [compound 128, 4-[(4-acetylpiperazin-1-yl)sulfonyl]-2,1,3-benzoxadiazole] | ≥ 20 | ≥ 20 |  | 
O=C(CN1CCN(S(=O)(=O)c2cccc3nonc23)CC1)N1CCOCC1 [compound 129, 4-{[4-(2-morpholin-4-yl-2-oxoethyl)piperazin-1-yl]sulfonyl}-2,1,3-benzoxadiazole] | ≥ 20 | ≥ 20 |  | 
O=S(=O)(c1cccc2nonc12)N1CCN(c2ncccn2)CC1 [compound 130, 4-[(4-pyrimidin-2-ylpiperazin-1-yl)sulfonyl]-2,1,3-benzoxadiazole] | ≥ 20 | ≥ 20 |  | 
O=S(=O)(c1cccc2nonc12)N1CCN(c2cnccn2)CC1 [compound 131, 4-[(4-pyrazin-2-ylpiperazin-1-yl)sulfonyl]-2,1,3-benzoxadiazole] | ≥ 20 | ≥ 20 |  | 
O=S(=O)(c1cccc2nonc12)N1CCN(c2ccc(Cl)c(C(F)(F)F)c2)CC1 [compound 132, 4-({4-[4-chloro-3-(trifluoromethyl)phenyl]piperazin-1-yl}sulfonyl)-2,1,3-benzoxadiazole] | ≥ 20 | ≥ 20 |  | 
CSc1ccc(-c2ccc([N+](=O)[O-])c3nonc23)cc1 [compound 318, 7-[4-(Methylthio)phenyl]-4-nitro-2,1,3-benzoxadiazole] |  |  | < 1 | < 1
